This is an account of results in PMC9841523 (Journal of Medicinal Chemistry, 2022).

As a reminder, the inhibition is the drop in the measured response relative to a control, in per cent. Broadly, the IC50 is the point on the concentration scale where inhibition reaches its midpoint.

The test system of one data set is NCI-H2122 NSCLC CDX. Put plainly: NCI-H2122 NSCLC CDX model. The note with it: RMC-6272 10 mg/kg ip once weekly; sotorasib 100 mg/kg po qd; single agents or combination. Type of data set: in vivo. The method, then: groups when mean tumor volume reached 400–600 mm 3. Tumor and plasma samples were collected for PK and PD analysis at indicated time points after a single dose of indicated […]
doses. Everolimus was formulated in v/v/v/, 30/5/65 Propylene glycol/Tween 80/H 2O.
NCI-H2122 xenograft studies. Female Balb/c nude mice (Beijing V.R Biotechnology Co. […]
per inoculation. When mean tumor volume reached between 150–200 mm 3, mice were […]
Transcutol/Solutol HS 15/H 2O. Sotorasib (AMG 510) was administered by oral gavage at 100 mg/kg daily and formulated in 2% (w/v) HPMC E-50, 0.5% Tween 80 in 50 mM sodium citrate […]
In vivo pharmacodynamics. Snap frozen tumors collected were homogenized with MSD complete lysis buffer (as prepared according to Meso Scale Discovery kit protocol) using PreCellys Bead Shaker (Bertin Instruments) according to manufacturer's protocol. Phospho-4E-BP1(Thr37/46) Whole Cell Lysate Kit (Meso Scale Discovery) was used to quantify phosphorylation of 4E-BP1 in the tumors according to manufacturer's protocol.
Expression and purification of FKBP12, FRB domain, and RHEB-GTPγS. DNA pET28

A further data set relates to Wnk1, Wnk2, Wnk4. The data set can be described thus: KiNativ kinase panel. Type of data set: cell-based, human. The following applies: 1 μM; MCF-7 Cells; Activation Loop; IGDLGLATLKR
The test system of data set [1] is RSK1 domain1, RSK2 domain1, RSK3 domain1. Put plainly: KiNativ kinase panel. Type of data set: cell-based, human. The following applies: 1 μM; MCF-7 Cells; Lys2; DLKPENILLDEEGHIK
The subject of data set [2] is AR (h) (agonist radioligand). The data set can be described thus: Eurofins Safety Screen 44. The format is binding, human. The note with it: 10 µM.
Data set [3] concerns the target T1, dopamine transporter(h) (antagonist radioligand) (Homo sapiens, UniProt Q01959).
T1 construct: Eurofins (ran the panel)
Put plainly: Eurofins Safety Screen 44. The format is binding. The note with it: read-out: % Inhibition of Control Values.

In the next data set the target is T2, PDE3A (h) (Homo sapiens, UniProt Q14432).
T2 construct: Eurofins (ran the panel)
T2 sequence (Q14432 whole entry): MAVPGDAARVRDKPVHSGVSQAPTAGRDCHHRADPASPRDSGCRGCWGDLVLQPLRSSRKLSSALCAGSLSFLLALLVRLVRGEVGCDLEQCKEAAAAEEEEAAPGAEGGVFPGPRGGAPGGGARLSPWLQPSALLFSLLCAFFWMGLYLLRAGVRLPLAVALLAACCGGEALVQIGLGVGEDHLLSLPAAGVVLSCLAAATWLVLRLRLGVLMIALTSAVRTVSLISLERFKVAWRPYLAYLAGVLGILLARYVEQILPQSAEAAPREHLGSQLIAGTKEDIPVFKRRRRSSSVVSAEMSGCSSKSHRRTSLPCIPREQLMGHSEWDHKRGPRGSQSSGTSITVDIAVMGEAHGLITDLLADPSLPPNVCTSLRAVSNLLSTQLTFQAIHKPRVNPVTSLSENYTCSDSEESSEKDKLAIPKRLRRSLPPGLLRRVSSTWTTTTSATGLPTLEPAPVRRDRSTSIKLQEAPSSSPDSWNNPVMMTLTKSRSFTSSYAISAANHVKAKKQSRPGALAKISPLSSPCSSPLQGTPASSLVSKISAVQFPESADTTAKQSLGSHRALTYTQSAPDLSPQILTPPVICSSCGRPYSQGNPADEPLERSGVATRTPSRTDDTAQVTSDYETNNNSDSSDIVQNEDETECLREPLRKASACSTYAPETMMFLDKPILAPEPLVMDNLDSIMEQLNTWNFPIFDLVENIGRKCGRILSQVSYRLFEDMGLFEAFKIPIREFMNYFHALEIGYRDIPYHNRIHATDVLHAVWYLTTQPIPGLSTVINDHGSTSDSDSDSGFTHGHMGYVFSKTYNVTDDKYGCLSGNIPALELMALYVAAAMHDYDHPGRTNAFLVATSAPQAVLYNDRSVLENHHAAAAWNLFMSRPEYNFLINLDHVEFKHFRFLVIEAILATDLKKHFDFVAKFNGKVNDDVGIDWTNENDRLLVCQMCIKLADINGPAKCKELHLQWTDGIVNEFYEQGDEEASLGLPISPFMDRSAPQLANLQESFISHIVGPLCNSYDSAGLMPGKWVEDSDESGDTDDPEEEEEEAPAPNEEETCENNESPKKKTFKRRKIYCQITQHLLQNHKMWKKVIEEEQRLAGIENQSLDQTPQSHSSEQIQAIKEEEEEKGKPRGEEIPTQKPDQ
Put plainly: Eurofins Safety Screen 44. The note with it: read-out: % Inhibition of Control Values. The format is biochemical.

Data set [4] addresses T3, H1(h) (antagonist radioligand) (Homo sapiens, UniProt P35367).
T3 construct: purchased ActivX Biosciences (KiNativ)
Put plainly: Eurofins Safety Screen 44. The format is binding. The note with it: read-out: % Inhibition of Control Values.

For data set [5], the target named is T4, V1a(h) (agonist radioligand) (Homo sapiens, UniProt P37288).
T4 construct: purchased ActivX Biosciences (KiNativ)
T4 sequence (P37288 whole entry): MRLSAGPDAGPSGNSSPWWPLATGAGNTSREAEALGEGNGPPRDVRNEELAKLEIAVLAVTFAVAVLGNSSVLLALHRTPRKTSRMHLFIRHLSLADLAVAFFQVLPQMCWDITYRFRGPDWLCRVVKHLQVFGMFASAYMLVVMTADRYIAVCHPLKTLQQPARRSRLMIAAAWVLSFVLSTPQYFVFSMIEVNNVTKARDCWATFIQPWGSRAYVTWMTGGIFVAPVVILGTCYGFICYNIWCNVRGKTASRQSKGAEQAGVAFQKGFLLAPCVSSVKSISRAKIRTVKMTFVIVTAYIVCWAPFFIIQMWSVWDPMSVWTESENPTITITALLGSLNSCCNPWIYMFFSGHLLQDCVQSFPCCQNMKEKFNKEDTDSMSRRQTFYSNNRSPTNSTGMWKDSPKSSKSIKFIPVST
Put plainly: Eurofins Safety Screen 44. The format is binding. The following applies: read-out: % Inhibition of Control Values.

Data set [6] has as its target T5, 5-HT transporter (h) (antagonist radioligand) (Homo sapiens, UniProt P31645).
T5 construct: Eurofins (ran the panel)
Put plainly: Eurofins Safety Screen 44. The format is binding. The note with it: read-out: % Inhibition of Control Values.

Data set [7] relates to BZD (central) (agonist radioligand). The data set can be described thus: Eurofins Safety Screen 44. The format is binding. The note with it: 10 µM.
Data set [8] relates to Na+ channel (site 2) (antagonist radioligand). Put plainly: Eurofins Safety Screen 44. The format is binding. The note with it: 10 µM.
For data set [9], the target named is T6, 5-HT2A(h) (agonist radioligand) (Homo sapiens, UniProt P28223).
T6 construct: purchased ActivX Biosciences (KiNativ)
The data set can be described thus: Eurofins Safety Screen 44. Type of data set: binding. The note with it: read-out: % Inhibition of Control Values.

For data set [10], the system named is 4EBP1 T37/T46 phosphorylation (mTORC1). The data set can be described thus: AlphaLISA/MSD analysis of 4EBP1 phosphorylation in MDA-MB-468 cells. Type of data set: cell-based. The following applies: Homo sapiens, MDA-MB-468, read-out: p4EBP1 IC50. On the procedure:
Cell culture and reagents. Cells were obtained from ATCC, grown in appropriate medium supplemented with 10% fetal bovine serum and 1% penicillin/streptomycin and maintained at 37 °C in a humidified incubator at 5% CO 2.
AlphaLISA and MesoScale Discovery (MSD) analysis of 4EBP1, S6K and AKT phosphorylation. mTOR substrate phosphorylation in MDA-MB-468 cells was assayed using AlphaLISA SureFire Ultra kits for p4EBP1 Thr37/46, p-P70S6K Thr389 and p-AKT1/2/3 Ser473 (PerkinElmer), and MSD Multi-Array Assay Systems for Phospho-4EBP1 (Thr37/46) and Phospho-AKT (Ser473) (MSD). Cells were seeded at 25,000 cells per well and exposed the next day to serial three-fold dilutions of compounds in complete medium with 0.1% dimethylsulfoxide (DMSO). After indicated incubation times, cells were lysed and AlphaLISA or MSD performed according to the manufacturers’ protocols. Samples were read using an EnVision Multilabel Plate Reader (PerkinElmer) using standard AlphaLISA settings or using an MSD plate reader. Data were plotted as a function of logM [compound] with a sigmoidal concentration response (variable slope) model fitted to the data to estimate the inhibitor half-maximum effective concentration (EC 50) in Prism 7 (GraphPad). Alternatively, results were analyzed as percentage of control in which 0% was set as signal from 1 μM Torin1 and 100% was set as the mean of DMSO wells on each plate, and inhibitor EC 50 was estimated as described
On the technique in general: In Alpha technology, singlet oxygen from a donor bead excites a nearby acceptor bead.

Data set [11] deals with T7, M1(h) (antagonist radioligand) (Homo sapiens, UniProt P11229).
T7 construct: purchased ActivX Biosciences (KiNativ)
Put plainly: Eurofins Safety Screen 44. The format is binding. The following applies: read-out: % Inhibition of Control Values.

Data set [12] has as its target T8, β2(h) (antagonist radioligand) (Homo sapiens, UniProt P07550).
T8 construct: purchased ActivX Biosciences (KiNativ)
Put plainly: Eurofins Safety Screen 44. The note with it: read-out: % Inhibition of Control Values. Type of data set: binding.

The target in data set [13] is T9, norepinephrine transporter(h) (antagonist radioligand) (Homo sapiens, UniProt P23975).
T9 construct: purchased ActivX Biosciences (KiNativ)
T9 sequence (P23975 whole entry): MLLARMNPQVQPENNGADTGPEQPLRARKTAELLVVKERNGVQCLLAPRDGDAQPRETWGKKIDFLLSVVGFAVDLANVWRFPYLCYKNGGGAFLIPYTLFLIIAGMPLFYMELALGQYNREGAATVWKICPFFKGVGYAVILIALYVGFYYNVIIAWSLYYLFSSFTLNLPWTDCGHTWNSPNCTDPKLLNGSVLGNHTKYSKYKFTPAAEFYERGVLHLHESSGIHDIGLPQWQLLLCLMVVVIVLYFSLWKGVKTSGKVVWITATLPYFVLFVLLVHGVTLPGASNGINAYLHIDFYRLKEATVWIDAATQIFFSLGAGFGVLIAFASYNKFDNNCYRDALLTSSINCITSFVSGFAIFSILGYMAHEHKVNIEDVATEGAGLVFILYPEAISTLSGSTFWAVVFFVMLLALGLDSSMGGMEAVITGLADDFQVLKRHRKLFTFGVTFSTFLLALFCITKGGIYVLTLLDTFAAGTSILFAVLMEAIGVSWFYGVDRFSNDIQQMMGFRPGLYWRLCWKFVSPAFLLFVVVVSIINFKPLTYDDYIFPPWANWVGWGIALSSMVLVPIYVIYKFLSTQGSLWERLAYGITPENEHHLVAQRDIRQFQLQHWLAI
The data set can be described thus: Eurofins Safety Screen 44. The format is binding. The note with it: read-out: % Inhibition of Control Values.

Data set [14] concerns KV channel (antagonist radioligand). Put plainly: Eurofins Safety Screen 44. The format is binding. The note with it: 10 µM.
Data set [15] has as its target T10, β1(h) (agonist radioligand) (Homo sapiens, UniProt P08588).
T10 construct: purchased ActivX Biosciences (KiNativ)
Put plainly: Eurofins Safety Screen 44. Type of data set: binding. The note with it: read-out: % Inhibition of Control Values.

Data set [16] concerns Safety Screen 44 off-targets. Put plainly: Eurofins Safety Screen 44, whole panel. The following applies: 10 µM.
The subject of data set [17] is Ca2+ channel (L, dihydropyridine site) (antagonist radioligand). Put plainly: Eurofins Safety Screen 44. The format is binding. The following applies: 10 µM.
The target of data set [18] is T11, α1A(h) (antagonist radioligand) (Homo sapiens, UniProt P35348).
T11 construct: purchased ActivX Biosciences (KiNativ)
T11 sequence (P35348 whole entry): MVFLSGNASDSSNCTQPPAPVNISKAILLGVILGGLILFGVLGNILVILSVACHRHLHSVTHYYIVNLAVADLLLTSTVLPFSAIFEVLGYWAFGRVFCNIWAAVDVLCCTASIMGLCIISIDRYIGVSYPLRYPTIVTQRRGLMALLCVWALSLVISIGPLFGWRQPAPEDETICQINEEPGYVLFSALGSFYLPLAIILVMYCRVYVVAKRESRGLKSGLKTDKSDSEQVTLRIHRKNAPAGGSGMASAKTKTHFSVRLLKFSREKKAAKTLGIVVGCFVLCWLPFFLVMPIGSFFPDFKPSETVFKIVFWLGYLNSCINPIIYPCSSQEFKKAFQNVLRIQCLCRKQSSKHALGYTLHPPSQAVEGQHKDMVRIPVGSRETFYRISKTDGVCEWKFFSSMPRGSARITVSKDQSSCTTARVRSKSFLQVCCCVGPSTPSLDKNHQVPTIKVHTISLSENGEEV
Put plainly: Eurofins Safety Screen 44. Type of data set: binding. The following applies: read-out: % Inhibition of Control Values.

In data set [19] the target is T12, CB2(h) (agonist radioligand) (Homo sapiens, UniProt P34972).
T12 construct: purchased ActivX Biosciences (KiNativ)
The data set can be described thus: Eurofins Safety Screen 44. The format is binding. The note with it: read-out: % Inhibition of Control Values.

Data set [20] has as its target T13, A2A(h) (agonist radioligand) (Homo sapiens, UniProt P29274).
T13 construct: purchased ActivX Biosciences (KiNativ)
Put plainly: Eurofins Safety Screen 44. The format is binding. The note with it: read-out: % Inhibition of Control Values.

The target of data set [21] is T14, D1(h) (antagonist radioligand) (Homo sapiens, UniProt P21728).
T14 construct: purchased ActivX Biosciences (KiNativ)
The data set can be described thus: Eurofins Safety Screen 44. The following applies: read-out: % Inhibition of Control Values. Type of data set: binding.

For a further data set, the target named is T15, COX2(h) (Homo sapiens, UniProt P35354).
T15 construct: Eurofins (ran the panel)
T15 sequence (P35354 18-604): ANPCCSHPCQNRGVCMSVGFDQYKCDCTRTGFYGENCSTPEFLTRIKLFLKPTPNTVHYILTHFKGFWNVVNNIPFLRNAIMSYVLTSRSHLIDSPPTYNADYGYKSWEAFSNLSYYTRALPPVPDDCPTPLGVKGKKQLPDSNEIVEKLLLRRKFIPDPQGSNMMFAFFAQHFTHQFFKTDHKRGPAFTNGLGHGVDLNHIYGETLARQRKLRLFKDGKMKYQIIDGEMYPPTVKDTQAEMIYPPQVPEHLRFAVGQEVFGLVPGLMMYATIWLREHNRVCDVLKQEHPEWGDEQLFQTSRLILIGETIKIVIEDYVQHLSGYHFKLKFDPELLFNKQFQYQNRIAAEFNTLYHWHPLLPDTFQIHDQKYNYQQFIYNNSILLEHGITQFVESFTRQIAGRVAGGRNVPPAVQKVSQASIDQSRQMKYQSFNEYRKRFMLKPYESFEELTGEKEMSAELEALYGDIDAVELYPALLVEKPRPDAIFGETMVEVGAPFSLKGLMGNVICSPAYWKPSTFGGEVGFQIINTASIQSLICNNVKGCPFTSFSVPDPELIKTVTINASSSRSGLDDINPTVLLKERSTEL
Put plainly: Eurofins Safety Screen 44. Type of data set: biochemical. The following applies: read-out: % Inhibition of Control Values.

T8 sequence (P07550 whole entry): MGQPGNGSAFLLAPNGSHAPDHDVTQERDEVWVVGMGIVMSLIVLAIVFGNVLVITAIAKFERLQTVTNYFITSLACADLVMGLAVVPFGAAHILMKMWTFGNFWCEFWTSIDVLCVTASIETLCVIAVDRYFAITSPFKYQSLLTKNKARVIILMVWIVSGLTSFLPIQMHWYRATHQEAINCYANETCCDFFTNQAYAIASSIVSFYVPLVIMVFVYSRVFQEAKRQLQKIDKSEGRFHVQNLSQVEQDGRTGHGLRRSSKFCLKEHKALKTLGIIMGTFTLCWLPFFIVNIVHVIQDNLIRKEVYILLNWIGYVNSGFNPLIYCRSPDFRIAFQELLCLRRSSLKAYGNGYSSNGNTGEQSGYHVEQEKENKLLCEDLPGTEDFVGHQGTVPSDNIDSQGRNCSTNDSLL
T1 sequence (Q01959 whole entry): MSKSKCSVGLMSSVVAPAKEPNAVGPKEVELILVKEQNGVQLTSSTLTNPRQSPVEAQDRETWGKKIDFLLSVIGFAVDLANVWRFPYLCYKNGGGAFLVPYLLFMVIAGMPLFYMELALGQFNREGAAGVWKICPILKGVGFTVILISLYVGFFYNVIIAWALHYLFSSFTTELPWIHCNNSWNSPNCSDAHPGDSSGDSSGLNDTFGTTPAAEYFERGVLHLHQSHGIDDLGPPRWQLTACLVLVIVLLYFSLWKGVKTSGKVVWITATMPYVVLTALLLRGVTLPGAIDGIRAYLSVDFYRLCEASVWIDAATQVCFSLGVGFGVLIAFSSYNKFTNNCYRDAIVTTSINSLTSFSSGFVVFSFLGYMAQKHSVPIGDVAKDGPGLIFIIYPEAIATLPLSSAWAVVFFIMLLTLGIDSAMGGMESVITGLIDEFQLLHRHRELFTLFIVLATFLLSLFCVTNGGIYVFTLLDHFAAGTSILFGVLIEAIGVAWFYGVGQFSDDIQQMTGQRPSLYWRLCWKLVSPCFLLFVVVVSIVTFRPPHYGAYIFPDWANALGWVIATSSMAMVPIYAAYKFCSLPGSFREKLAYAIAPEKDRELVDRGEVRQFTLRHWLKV
T3 sequence (P35367 whole entry): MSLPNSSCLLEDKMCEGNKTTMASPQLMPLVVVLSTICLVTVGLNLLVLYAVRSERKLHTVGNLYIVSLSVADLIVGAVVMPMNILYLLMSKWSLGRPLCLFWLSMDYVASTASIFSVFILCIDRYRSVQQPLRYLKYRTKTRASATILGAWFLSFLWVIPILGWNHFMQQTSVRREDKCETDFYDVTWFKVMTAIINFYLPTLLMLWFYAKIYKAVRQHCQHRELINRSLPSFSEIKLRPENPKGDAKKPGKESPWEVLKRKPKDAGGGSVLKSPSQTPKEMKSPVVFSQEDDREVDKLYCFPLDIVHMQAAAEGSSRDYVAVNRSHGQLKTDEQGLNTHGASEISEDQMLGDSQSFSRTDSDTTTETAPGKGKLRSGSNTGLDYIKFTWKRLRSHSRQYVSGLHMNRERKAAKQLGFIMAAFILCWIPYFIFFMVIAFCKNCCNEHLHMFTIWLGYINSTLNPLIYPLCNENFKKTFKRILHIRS

For the molecule `CO[C@H]1C[C@@H]2CC[C@@H](C)[C@@](O)(O2)C(=O)C(=O)N2CCCC[C@H]2C(=O)O[C@H]([C@H](C)C[C@@H]2CC[C@@H](OC(=O)NCCOCCOCCOCCOCCOCCOCCOCCOCCC(=O)NCCS(=O)(=O)c3ccc(C(=O)N4CCOc5ccc(-c6ccc(N)nc6)cc5C4)c(C)c3F)[C@H](OC)C2)C[C@@H](O)[C@H](C)/C=C(\C)[C@@H](O)[C@@H](OC)C(=O)[C@H](C)C[C@H](C)/C=C/C=C/C=C/1C` [compound 40], the “antitumor activity (tumor regressions) in NCI-H2122 CDX model” value with NCI-H2122 NSCLC CDX was “Neither”. Also, the “KiNativ Kinase Panel Data” value in the data set with Wnk1, Wnk2, Wnk4 is -17.4; in data set [1], 27.4.
In the case of `CO[C@H]1C[C@@H]2CC[C@@H](C)[C@@](O)(O2)C(=O)C(=O)N2CCCC[C@H]2C(=O)O[C@H]([C@H](C)C[C@@H]2CC[C@@H](OC(=O)NCCOCCOCCOCCOCCOCCOCCOCCOCCC(=O)N3CCc4cc(Cn5nc(-c6ccc7oc(N)nc7c6)c6c(N)ncnc65)ccc4C3)[C@H](OC)C2)C[C@@H](O)[C@H](C)/C=C(\C)[C@@H](O)[C@@H](OC)C(=O)[C@H](C)C[C@H](C)/C=C/C=C/C=C/1C` [compound 38], the “% Inhibition of Control Values” in data set [2] is recorded as -14.9%; in [7] it was 3.3%; in data set [8], 1.0%; in [14], -8.0%; in data set [17], -45.0%. In addition, the inhibition at 10 µM was -1.5% in [3]; -47.2% at PDE3A (h); -12.6% in data set [4]; 6.5% in data set [5]; -4.5% in [6]; -28.9% in data set [9]. Also, the inhibition at 10 µM in data set [11] is -5.4%; in [12] it was -3.3%; in data set [13], -15.7%; in data set [15] it was 3%; in data set [18], 0.6%; in data set [19] it was 0.6%. Also, the inhibition at 10 µM in data set [20] was -4.5%; in data set [21] it was -0.5%; at COX2(h), 4.4%. For the same molecule, in data set [10], the IC50 is 0.48 nM. The “Eurofins Safety Screen 44 inhibition” value in data set [16] is reported as <5% inhibition (low promiscuity). Also, the “Eurofins Safety Screen 44 result” value in data set [16] is on record as “no significant inhibition”.
